This is an account of results in patent US8586747B2, “3,3-dimethyl tetrahydroquinoline derivatives” (Hoffmann-La Roche Inc., priority 2010, dated 2013).

The subject of the experiment is AMP-activated protein kinase (AMPK). Nature of the experiment: ADP Quest assay for AMPK activators. The experiment is classed as biochemical. The arrangement: key: fold AMPK activation with vs without activator at 30 µM. To be noted: fold of AMPK activation to phosphorylate SAMS peptide without and with an activator at the concentration of 30 µM. The method in brief:
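AMPK phosphorylation of SAMS peptide with ATP monitored kinetically at room temperature by ADP Quest fluorescence (ex 530/em 590 nm), reaction started with enzyme. Compounds tested […] in 2-fold dilutions, AMP as reference. E30 is fold activation at 30 µM activator versus none.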

The structures appear in SMILES notation.

Compound `CC(C)(C)c1ccc(-c2cccc(C3Nc4ccc(F)c(C(=O)NS(C)(=O)=O)c4CC3(C)C)c2)cc1` (stereo not shown) [Example 157, N-[2-(4′-tert-Butyl-biphenyl-3-yl)-6-fluoro-3,3-dimethyl-1,2,3,4-tetrahydro-quinoline-5-carbonyl]-methanesulfonamide] displayed an E30 of 1.36. Compound `CC1(C)Cc2cc(C(=O)O)ccc2NC1c1ccccc1` (stereo not shown) [Example 158, 3,3-Dimethyl-2-phenyl-1,2,3,4-tetrahydro-quinoline-6-carboxylic acid] showed an E30 of 1.34. With `CC(C)NC(=O)c1ccc(-c2cccc(C3Nc4ccc(C(=O)O)cc4CC3(C)C)c2)cc1` (stereo not shown) [Example 159, 2-(4′-Isopropylcarbamoyl-biphenyl-3-yl)-3,3-dimethyl-1,2,3,4-tetrahydro-quinoline-6-carboxylic acid] the figure was 1.31. With `CC(C)(C)NC(=O)c1ccc(-c2cccc(C3Nc4ccc(C(=O)NS(C)(=O)=O)cc4CC3(C)C)c2)cc1` (stereo not shown) [Example 160, 3′-(6-Methanesulfonylaminocarbonyl-3,3-dimethyl-1,2,3,4-tetrahydro-quinolin-2-yl)-biphenyl-4-carboxylic acid tert-butylamide] the figure was 1.23; with `CC1(C)Cc2cc(C(=O)NS(=O)(=O)C3CC3)ccc2NC1c1cccc(-c2ccc(S(C)(=O)=O)cc2)c1` (stereo not shown) [Example 161, Cyclopropanesulfonic acid [2-(4′-methanesulfonyl-biphenyl-3-yl)-3,3-dimethyl-1,2,3,4-tetrahydro-quinoline-6-carbonyl]-amide], 1.21; with `CC(C)(C)NC(=O)c1ccc(-c2cccc(C3Nc4ccc(C(=O)O)cc4CC3(C)C)c2)cc1` (stereo not shown) [Example 162, 2-(4′-tert-Butylcarbamoyl-biphenyl-3-yl)-3,3-dimethyl-1,2,3,4-tetrahydro-quinoline-6-carboxylic acid], 1.2. `CC(C)(Nc1ccccc1C1Nc2ccc(C(=O)O)cc2CC1(C)C)C(=O)O` (stereo not shown) [Example 163, 2-[2-(1-Carboxy-1-methyl-ethylamino)-phenyl]-3,3-dimethyl-1,2,3,4-tetrahydro-quinoline-6-carboxylic acid] returned an E30 of 3.68. With `CC1(C)Cc2cc(C(=O)O)ccc2NC1c1ccccc1NC1(C(=O)O)CC1` (stereo not shown) [Example 164, 2-[2-(1-Carboxy-cyclopropylamino)-phenyl]-3,3-dimethyl-1,2,3,4-tetrahydro-quinoline-6-carboxylic acid] the figure was 1.78; with `CN1CCC(NC(=O)c2cccc(C3Nc4ccc(C(=O)O)cc4CC3(C)C)c2)C1` (stereo not shown) [Example 165, 3,3-dimethyl-2-(3-(1-methylpyrrolidin-3-ylcarbamoyl)phenyl)-1,2,3,4-tetrahydroquinoline-6-carboxylic acid], 1.53; with `CC(C)S(=O)(=O)Nc1cccc(C2Nc3ccc(C(=O)O)cc3CC2(C)C)c1` (stereo not shown) [Example 166, 3,3-Dimethyl-2-(3-(1-methylethylsulfonamido)phenyl)-1,2,3,4-tetrahydroquinoline-6-carboxylic acid], 1.43. Next, `CC1(C)Cc2cc(C(=O)O)ccc2NC1c1cccc(C(=O)NC2CCOC2)c1` (stereo not shown) [Example 167, 3,3-Dimethyl-2-(3-(tetrahydrofuran-3-ylcarbamoyl)phenyl)-1,2,3,4-tetrahydroquinoline-6-carboxylic acid]: 1.4. With `CC1(C)Cc2cc(C(=O)O)ccc2NC1c1ccc(NS(=O)(=O)c2ccccc2)cc1` (stereo not shown) [Example 168, 3,3-Dimethyl-2-(4-(phenylsulfonamido)phenyl)-1,2,3,4-tetrahydroquinoline-6-carboxylic acid] the figure was 1.39; with `CC(=O)Nc1ccc(S(=O)(=O)Nc2cccc(C3Nc4ccc(C(=O)O)cc4CC3(C)C)c2)cc1` (stereo not shown) [Example 169, 2-(3-(4-Acetamidophenylsulfonamido)phenyl)-3,3-dimethyl-1,2,3,4-tetrahydroquinoline-6-carboxylic acid], 1.38; with `CC1(C)Cc2cc(C(=O)O)ccc2NC1c1cccc(C(=O)NC2CC2)c1` (stereo not shown) [Example 170, 2-(3-(Cyclopropylcarbamoyl)phenyl)-3,3-dimethyl-1,2,3,4-tetrahydroquinoline-6-carboxylic acid], 1.36.

Turning to `CC1(C)Cc2cc(C(=O)O)ccc2NC1c1cccc(C(=O)N2CCCC2)c1` (stereo not shown) [Example 171, 3,3-Dimethyl-2-(3-(pyrrolidine-1-carbonyl)phenyl)-1,2,3,4-tetrahydroquinoline-6-carboxylic acid], the E30 is recorded as 1.36.

In turn, `CC1(C)Cc2cc(C(=O)O)ccc2NC1c1cccc(C(=O)NC2CCC2)c1` (stereo not shown) [Example 172, 2-(3-(Cyclobutylcarbamoyl)phenyl)-3,3-dimethyl-1,2,3,4-tetrahydroquinoline-6-carboxylic acid] displayed an E30 of 1.34. Next, `CC(C)NC(=O)c1cccc(C2Nc3ccc(C(=O)O)cc3CC2(C)C)c1` (stereo not shown) [Example 173, 2-(3-(Isopropylcarbamoyl)phenyl)-3,3-dimethyl-1,2,3,4-tetrahydroquinoline-6-carboxylic acid]: 1.24. Next, `CC(C)C(=O)Nc1cc(C2Nc3ccc(C(=O)O)cc3CC2(C)C)ccc1F` (stereo not shown) [Example 174, 2-(4-Fluoro-3-isobutyramidophenyl)-3,3-dimethyl-1,2,3,4-tetrahydroquinoline-6-carboxylic acid]: 1.54. With `CC1(C)Cc2cc(C(=O)O)ccc2NC1c1cccc(C(=O)NS(=O)(=O)c2ccccc2)c1` (stereo not shown) [Example 175, 3,3-Dimethyl-2-(3-(phenylsulfonylcarbamoyl)phenyl)-1,2,3,4-tetrahydroquinoline-6-carboxylic acid] the figure was 1.5. `CC1(C)Cc2cc(C(=O)O)ccc2NC1c1cccc(C(=O)NS(=O)(=O)C2CC2)c1` (stereo not shown) [Example 176, 2-(3-(Cyclopropylsulfonylcarbamoyl)-phenyl)-3,3-dimethyl-1,2,3,4-tetrahydroquinoline-6-carboxylic acid] registered an E30 of 1.44. With `CC(C)C(=O)Nc1cc(C2Nc3ccc(C(=O)O)cc3CC2(C)C)ccc1Cl` (stereo not shown) [Example 177, 2-(4-Chloro-3-isobutyramidophenyl)-3,3-dimethyl-1,2,3,4-tetrahydroquinoline-6-carboxylic acid] the figure was 1.4; with `CC(C)C(=O)Nc1ccc(C2Nc3ccc(C(=O)O)cc3CC2(C)C)cc1` (stereo not shown) [Example 178, 2-(4-Isobutyramidophenyl)-3,3-dimethyl-1,2,3,4-tetrahydroquinoline-6-carboxylic acid], 1.36. Next, `CC1(C)Cc2cc(C(=O)O)ccc2NC1c1cccc(C(=O)NS(C)(=O)=O)c1` (stereo not shown) [Example 179, 3,3-Dimethyl-2-(3-(methylsulfonylcarbamoyl)-phenyl)-1,2,3,4-tetrahydroquinoline-6-carboxylic acid]: 1.33; `CC1(C)Cc2cc(C(=O)O)ccc2NC1c1ccc(F)c(NC(=O)c2ccccn2)c1` (stereo not shown) [Example 180, 2-(4-Fluoro-3-(picolinamido)-phenyl)-3,3-dimethyl-1,2,3,4-tetrahydroquinoline-6-carboxylic acid]: 1.32. Next, `CC1(C)Cc2cc(C(=O)O)ccc2NC1c1ccc(NS(=O)(=O)c2ccc(F)cc2)cc1` (stereo not shown) [Example 181, 2-(4-(4-Fluorophenylsulfonamido)phenyl)-3,3-dimethyl-1,2,3,4-tetrahydroquinoline-6-carboxylic acid]: 1.31.
